Measured values as given in patent publication US20130210034A1, “COMPLEX PHOSPHOPROTEIN ACTIVATION PROFILES” (BECKMAN COULTER, INC., priority 2005, published 2013).

How the values were obtained:
Type in all cases: cell-based, human
pSTAT5 = test: Cytokine-stimulated phosphorylation in AML cell populations (BM or PB of AML patients)
Protocol: (§1) To assess the signal transduction response after growth factor simulation, a series comprising two sets of tubes including about 3×10^6 cells/100 μL were incubated at 37° C. for 30 minutes. After this pre-incubation period, tubes with then processes with either a stimulant or inhibitor. […] To examine the effects of protein phosphorylation inhibition, tubes were incubated with an inhibitor cocktail comprising 100 μM/100 μL UO126, 1 μM/100 μL LY294002, and 1 μM/100 μL rapamycin. One unstimulated tube receiving no stimulant or inhibitor was processed to assess basal levels of phospho-protein expression. After stimulation the cells were immediately fixed in 10% formaldehyde solution at 37° C. Pre-labeling with CD13, CD16 and CD64 antibodies was carried out 20 minutes prior to formaldehyde fixation. After fixation, one set of tubes was permeabilized without methanol for pAKT, pERK and pS6 staining and the other for 80% methanol permeabilized for pSTAT3 and pSTAT5 staining. After permeablization, the cells were washed in PBS with 2% BSA and blocked by re-suspended in 75 μL of PBS comprising 25% heat inactivated normal mouse serum, 25% normal rabbit serum. To stain cells with fluorescent conjugated monoclonal antibodies, samples were incubated on ice for 45 minutes in 100 μL of an antibody staining solution including either: 1) CD15-Pacific Orange, CD34-Phycoerythrin-Texas Red, CD117-Phycoerythrin-Cyanin 5.5, CD45-Allophycocyanin-Alexa Fluor 750 (or CD45-Pacific Orange, in which case CD15-Pacific Orange was omitted), pS6-Pacific Blue, pERK-Alexa Fluor 488 and pAKT-Alexa Fluor 647 or 2) CD15-Pacific Orange, CD34-Phycoerythrin-Texas Red, CD117-Phycoerythrin-Cyanin 5.5, CD45-Allophycocyanin-Alexa Fluor 750 or CD45-Pacific Blue, pSTAT3-Alexa Fluor 488 and pSTAT5-Phycoerythrin. The stained cells were washed twice with ice cold PBS containing 2% BSA and centrifuged at 800 g for 6 minutes at 4° C. The supernatant was discarded and cells re-suspended in 250 μL of chilled wash buffer for data acquisition. Stained cells were examined using either GALIOS flow cytometer (Beckman Coulter) or CYAN ADP (Beckman Coulter) equipped with 488 nm, 405 nm and 635 nm lasers to detect the degree of fluorescence. Data were analyzed using FCS Express (De Novo Software, CA) analysis software.
(§2) Specific phosphoprotein expression of pERK, pS6, pAKT, pSTAT5, and pSTAT3 was examined in seven discrete phenotypically defined populations based on 7-color immunophenotyping (FIG. 1). The percent of responding (phosphorprotein positive) cells for each of these populations was determined from individual single parameter histograms based on a fixed integration region set on the inhibitor treated control at about 3% positives.
(§3) Using normal BM signaling profiles of Example 1 as comparison, analysis of 14 AML samples was carried out to identify differences in signaling responses. White blood cells from BM or peripheral blood (PB) samples were obtained from 14 diagnosed AML patients undergoing routine clinical flow cytometry analysis using IRB approved protocols. The AML patients included newly diagnosed AML, AMLs arising in a background of MDS, therapy related AMLs and previously diagnosed AML post therapy. The median age of the patients at diagnosis was 51 years (range: 29-75 years) and represented 5 female and 9 male patients. The median white blood cell was 6.4 million/mL (range: 0.9-106 M/mL) and the BM morphologic blast count was an average of 46% (range: 0%-90%).
(§4) Experiments performed to assess the signal transduction response after growth factor simulation were performed as described for Example 1.

pAKT = test: as above
Protocol: as §1, §2, §3, §4

pERK = test: as above
Protocol: as §1, §2, §3, §4

pERK and pS6 = test: Comparison of SCF-stimulated pERK and pS6 (pERK/pS6 ratios) in healthy donor and AML bone marrow samples
Protocol: In an attempt to dissect the differences between the pERK and pS6 kinetic profiles in healthy donor and AML bone marrow sampless, SCF-stimulated pERK and pS6 data derived from AML1, ALM2, and healthy donors 6 to 9 were analyzed from four different perspectives: MFI, the frequency of positive-stained cells, the ratio of positive to negative cells, and fold stimulation (FIG. 10 and Table 10). The ratio of positives to negative cells was calculated by estimating the AUC of both positive- and negative-stained cells at each t=n, and then expressing this as the ratio of positives to negatives. The fold stimulation was the fold change of the positive/negative ratio at t=n over the baseline ratio at t=0 min. […] However, this was not the case in the AML samples.

Molecule: Granulocyte-Macrophage Colony-Stimulating Factor [GM-CSF]
- pSTAT5, AML Sample (pSTAT5; patient AML2 (Example 3)): 14.6
- pSTAT5, AML Sample (pSTAT5; patient AML5 (Example 3)): 2.0
- pSTAT5, AML Sample (pSTAT5; patient AML6 (Example 3)): 2.5
- pSTAT5, AML Sample (pSTAT5; patient AML8 (Example 3)): 10.6
- pSTAT5, AML Sample (pSTAT5; patient AML13 (Example 3)): 14.6
- pSTAT5, AML Sample (pSTAT5; patient AML14 (Example 3)): 4.7

Molecule: Stem Cell Factor [SCF]
- pAKT, AML Sample (pAKT; patient AML5 (Example 3)): typical upregulation of pAKT
- pAKT activation kinetics compared to normal (pAKT; patient AML7 (Example 3), abnormal blasts): significant delayed activation, and prolonged expression
- pAKT, AML Sample (pAKT; patient AML11 (Example 3)): 3.2
- pERK, AML Sample (pERK; patient AML2 (Example 3)): 4.8
- pERK, AML Sample (first AML5 line) (pERK; patient AML5 (Example 3), normal value of this line is an S/N ratio): 3.4
- pERK, AML Sample (pERK; patient AML6 (Example 3)): 3.0
- pERK, AML Sample (pERK; patient AML11 (Example 3)): 3.3
- pERK, AML Sample (pERK; patient AML12 (Example 3)): 3.3
- pERK, AML Sample (pERK; patient AML13 (Example 3)): 4.8
- Fold Stimulation, pERK/pS6 (pERK and pS6; AML1): 1.4
- Frequency, pERK/pS6 (pERK and pS6; AML1): 0.92
- MFI, pERK/pS6 (pERK and pS6; AML1): 0.48
- Positives/Negatives, pERK/pS6 (pERK and pS6; AML1): 0.29
- Fold Stimulation, pERK/pS6 (pERK and pS6; AML2): 2.1
- Frequency, pERK/pS6 (pERK and pS6; AML2): 0.93
- MFI, pERK/pS6 (pERK and pS6; AML2): 0.54
- Positives/Negatives, pERK/pS6 (pERK and pS6; AML2): 0.32
- [(pERK)max:(pS6)max]MFI ratio (pERK and pS6; AML samples): about 0.5
- [(pERK)max:(pS6)max]POS/NEG ratio (pERK and pS6; AML samples): about 0.3
- Fold Stimulation, pERK/pS6 (pERK and pS6; healthy donors 6 to 9): 5.3
- Frequency, pERK/pS6 (pERK and pS6; healthy donors 6 to 9): 3.1
- MFI, pERK/pS6 (pERK and pS6; healthy donors 6 to 9): 3.6
- Positives/Negatives, pERK/pS6 (pERK and pS6; healthy donors 6 to 9): 11

B1: FMS-Like Tyrosine Kinase 3 (FLT-3) ligand (protein, UniProt P49771 27-235, looked up)
Fms-related tyrosine kinase 3 …: TQDCSFQHSPISSDFAVKIRELSDYLLQDYPVTVASNLQDEELCGGLWRLVLAQRWMERLKTVAGSKMQGLLERVNTEIHFVTKCAFQPPPSCLRFVQTNISRLLQETSEQLVALKPWITRQNFSRCLELQCQPDSSTLPPPWSPRPLEATAPTAPQPPLLLLLLLPVGLLLLAAAWCLHWQRTRRRTPRPGEQVPPVPSPQDLLLVEH
- pAKT, AML Sample (pAKT; patient AML5 (Example 3)): 8.1
- pERK, AML Sample (pERK; patient AML1 (Example 3)): 10.3
- pERK, AML Sample (pERK; patient AML5 (Example 3)): 8.1
- pERK, AML Sample (pERK; patient AML9 (Example 3)): 12.0
